The record followed here is US20240300980A1, “HETEROCYCLIC COMPOUNDS AS KRAS INHIBITOR, AND PREPARATION THEREFOR AND USE THEREOF IN TREATMENT” (SHANGHAI KECHOW PHARMA, INC., priority 2021, published 2024).

One may read the IC50 as the midpoint of a concentration-inhibition curve.

The test deals with AGS cells (KRAS^G12D). The experiment in a line: Detection of cell proliferation in vitro by MTT/MTS method (cell activity experiment). As to conditions: Homo sapiens, AGS, 72 h, AGS cells; MTT/MTS; 3 days of drug treatment; read-out: AGS IC50. Type of test: cell-based. In short, it runs like this: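 KRAS G12D AGS cells seeded at 1000 per well, compound added 24 h later, 0.5% final DMSO. Viability read after 3 days of treatment by MTT (solubilised in DMSO) or MTS, 4 h, absorbance 490 nm. IC50 from dose–response curves versus DMSO control.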
(In general: Formazan colour is commonly taken as a measure of viable cells.)
`C#Cc1c(F)ccc2cc(O)cc(-c3ccc4c(N5CC6(CNC6)C5)nc(OC[C@@]56CCCN5C[C@H](F)C6)nc4c3F)c12` [Example 135, 5-ethynyl-6-fluoro-4-(8-fluoro-2-(((2R, 7aS)-2-fluorotetrahydro-1H-pyrrolizin-7a(5H)-yl)methoxy)-4-(2,6-diazaspiro[3.3]heptan-2-yl)quinazolin-7-yl)naphthalen-2-ol]: the IC50 stood at 1.2 µM.

Regarding `C#Cc1cccc2cc(O)cc(-c3ncc4c(N5CCC6(CC5)CO[C@@H](C)[C@H]6N)nc(OC[C@@]56CCCN5C[C@H](F)C6)nc4c3F)c12` [Example 56, 4-(4-((3S,4S)-4-amino-3-methyl-2-oxa-8-azaspiro[4.5]decan-8-yl)-8-fluoro-2-(((2R, 7aS)-2-fluorotetrahydro-1H-pyrrolizin-7a(5H)-yl)methoxy)pyrido[4,3-d]pyrimidin-7-yl)-5-ethynylnaphthalen-2-ol], the IC50 is greater than 2.5 µM.

Regarding `C#Cc1cccc2cc(O)cc(-c3ccc4c(N5C[C@H]6CC[C@@H](C5)N6)c(C(F)(F)F)c(OC[C@@]56CCCN5C[C@H](F)C6)nc4c3)c12` [Example 184, 4-(4-((1R,5S)-3,8-diazabicyclo[3.2.1]octan-3-yl)-2-(((2R,7aS)-2-fluorotetrahydro-1H-pyrrolizin-7a(5H)-yl)methoxy)-3-(trifluoromethyl)quinolin-7-yl)-5-ethynylnaphthalen-2-ol], the IC50 is greater than 2.5 µM.

`C#Cc1c(F)ccc2cccc(N3CCc4c(nc(OC[C@@]56CCCN5C[C@H](COC(=O)N(C)C)C6)nc4N4C[C@H]5CC[C@@H](C4)N5)C3)c12` [Example 211, ((2R,7aS)-7a-(((4-((1R,5S)-3,8-diazabicyclo[3.2.1]octan-3-yl)-7-(8-ethynyl-7-fluoronaphthalen-1-yl)-5,6,7,8-tetrahydropyrido[3,4-d]pyrimidin-2-yl)oxy)methyl)hexahydro-1H-pyrrolizin-2-yl)methyl dimethylcarbamate]: the IC50 was determined as 0.055 µM.

Take `CCc1c(F)ccc2cc(O)cc(-c3ccc4c(N5C[C@H]6CC[C@@H](C5)N6)nc(OC[C@]56CCCN5[C@@H](COC(=O)N(C)C)CC6)nc4c3F)c12` [Example 97, ((3R,7aR)-7a-(((4-((1R,5S)-3,8-diazabicyclo[3.2.1]octan-3-yl)-7-(8-ethyl-7-fluoro-3-hydroxynaphthalen-1-yl)-8-fluoroquinazolin-2-yl)oxy)methyl)hexahydro-1H-pyrrolizin-3-yl) methyl dimethylcarbamate]: the IC50 was 0.018 µM.

As to `C#Cc1cccc2cc(O)cc(-c3ccc4c(N5C[C@H]6CC[C@@H](C5)N6)c(C#N)c(OC[C@@]56CCCN5C[C@H](F)C6)nc4c3)c12` [Example 173, 4-((1R,5S)-3,8-diazabicyclo[3.2.1]octan-3-yl)-7-(8-ethynyl-3-hydroxynaphthalen-1-yl)-2-(((2R,7aS)-2-fluorotetrahydro-1H-pyrrolizin-7a(5H)-yl)methoxy)quinoline-3-carbonitrile], the IC50 amounted to 1.45 µM.

Turning to `C#Cc1cc2c(N3C[C@H]4CC[C@@H](C3)N4)nc(OC[C@@]34CCCN3C[C@H](F)C4)nc2c(F)c1-c1cc(O)cc2ccccc12` [Example 369, 4-(4-((1R,5S)-3,8-diazabicyclo[3.2.1]octan-3-yl)-6-ethynyl-8-fluoro-2-(((2R,7aS)-2-fluorotetrahydro-1H-pyrrolizin-7a(5H)-yl)methoxy)quinazolin-7-yl)naphthalen-2-ol], the concentration for half-maximal inhibition (IC50) worked out at 0.18 µM.

As to `C#Cc1c(F)ccc2cc(O)cc(-c3ccc4c(N5CC6CCC(C5)[S+]6[O-])nc(OC[C@@]56CCCN5C[C@H](F)C6)nc4c3F)c12` (stereo partly drawn) [Example 159, (1R,5S,8R)-3-(7-(8-ethynyl-7-fluoro-3-hydroxynaphthalen-1-yl)-8-fluoro-2-(((2R,7aS)-2-fluorotetrahydro-1H-pyrrolizin-7a(5H)-yl)methoxy)quinazolin-4-yl)-8-thia-3-azabicyclo[3.2.1]octane 8-oxide], the IC50 was greater than 2.5 µM.

With `C#Cc1cccc2cc(O)cc(-c3ccc4c(N5C[C@H]6CC[C@@H](C5)N6)nc(OC[C@@]56CCCN5C[C@H](F)C6)nc4c3)c12` [Example 152, 4-(4-((1R,5S)-3,8-diazabicyclo[3.2.1]octan-3-yl)-2-(((2R, 7aS)-2-fluorotetrahydro-1H-pyrrolizin-7a(5H)-yl)methoxy)quinazolin-7-yl)-5-ethynylnaphthalen-2-ol], the IC50 was found to be 0.318 µM.

Take `C#Cc1cccc2cc(O)cc(-c3ncc4c(N5CC6CCC(C5)C6F)nc(OC[C@@]56CCCN5C[C@H](F)C6)nc4c3F)c12` (stereo partly drawn) [Example 36, 5-ethynyl-4-(8-fluoro-4-((1R,5S,8R)-8-fluoro-3-azabicyclo[3.2.1]octan-3-yl)-2-(((2R,7aS)-2-fluorotetrahydro-1H-pyrrolizin-7a(5H)-yl)methoxy)pyrido[4,3-d]pyrimidin-7-yl) naphthalen-2-ol]: the 50% inhibitory concentration (IC50) is greater than 2.5 µM.

On to `CSc1c(F)ccc2cc(O)cc(-c3ncc4c(N5C[C@H]6CC[C@@H](C5)N6)nc(OC[C@@]56CCCN5C[C@H](F)C6)nc4c3F)c12` [Example 360, 4-(4-((1R,5S)-3,8-diazabicyclo[3.2.1]octan-3-yl)-8-fluoro-2-(((2R,7aS)-2-fluorotetrahydro-1H-pyrrolizin-7a(5H)-yl)methoxy)pyrido[4,3-d]pyrimidin-7-yl)-6-fluoro-5-(methylthio)naphthalen-2-ol], for which the IC50 was 0.01 µM.

As to `CCc1ccc2cc(O)cc(C3=C(F)c4nc(OC[C@@]56CCCN5C[C@H](F)C6)nc(N5C[C@H]6CC[C@@H](C5)N6)c4C4=NCCN43)n12` [Example 412, 5-(10-((1R,5S)-3,8-diazabicyclo[3.2.1]octan-3-yl)-6-fluoro-8-(((2R,7aS)-2-fluorotetrahydro-1H-pyrrolizin-7a(5H)-yl)methoxy)-2,3-dihydroimidazo[1′,2′:1,2]pyrido[4,3-d]pyrimidin-5-yl)-3-ethylindolizin-7-ol], the IC50 was determined as 0.035 µM.

As for `Oc1cc(-c2ccc3c(N4C[C@H]5CC[C@@H](C4)N5)nc(OC[C@@]45CCCN4C[C@H](F)C5)nc3n2)c2c(F)c(F)ccc2c1` [Example 142, 4-(4-((1R,5S)-3,8-diazabicyclo[3.2.1]octan-3-yl)-2-(((2R,7aS)-2-fluorotetrahydro-1H-pyrrolizin-7a(5H)-yl)methoxy)pyrido[2,3-d]pyrimidin-7-yl)-5,6-difluoronaphthalen-2-ol], the IC50 was greater than 2.5 µM.

As for `C#Cc1c(F)ccc2cc(O)cc(-c3ncc4c(N5CC6CCNC6C5)nc(OC[C@@]56CCCN5C[C@H](F)C6)nc4c3F)c12` (stereo partly drawn) [Example 54, 5-ethynyl-6-fluoro-4-(8-fluoro-2-(((2R,7aS)-2-fluorotetrahydro-1H-pyrrolizin-7a(5H)-yl)methoxy)-4-(hexahydropyrrolo[3,4-b]pyrrol-5(1H)-yl)pyrido [4,3-d]pyrimidin-7-yl) naphthalen-2-ol], the IC50 was greater than 2.5 µM.

For the compound `Cn1cnc2cc(O)cc(-c3ncc4c(N5C[C@H]6CC[C@@H](C5)N6)nc(OC[C@@]56CCCN5C[C@H](F)C6)nc4c3F)c21` [Example 279, 7-(4-((1R,5S)-3,8-diazabicyclo[3.2.1]octan-3-yl)-8-fluoro-2-(((2R,7aS)-2-fluorotetrahydro-1H-pyrrolizin-7a(5H)-yl)methoxy)pyrido[4,3-d]pyrimidin-7-yl)-1-methyl-1H-benzo[d]imidazol-5-ol], the IC50 was greater than 10 µM.

Take `C#Cc1c(F)ccc2cc(O)cc(-c3ccc4c(N5C[C@H]6CC[C@@H](C5)S6)nc(OC[C@@]56CCCN5C[C@H](F)C6)nc4c3F)c12` [Example 158, 4-(4-((1R,5S)-8-thia-3-azabicyclo[3.2.1]octan-3-yl)-8-fluoro-2-(((2R,7aS)-2-fluorotetrahydro-1H-pyrrolizin-7a(5H)-yl)methoxy)quinazolin-7-yl)-5-ethynyl-6-fluoronaphthalen-2-ol]: the IC50 turned out to be 0.235 µM.

Take `CCc1c(F)ccc2cc(O)cc(N3CCc4c(nc(OC[C@@]56CCCN5C[C@H](F)C6)nc4N4C[C@H]5CC[C@@H](C4)N5)C3)c12` [Example 203, 4-(4-((1R,5S)-3,8-diazabicyclo[3.2.1]octan-3-yl)-2-(((2R,7aS)-2-fluorotetrahydro-1H-pyrrolizin-7a(5H)-yl)methoxy)-5,8-dihydropyrido[3,4-d]pyrimidin-7(6H)-yl)-5-ethyl-6-fluoronaphthalen-2-ol]: the IC50 was found to be 0.017 µM.

Regarding `Oc1cc(-c2ccc3c(N4C[C@H]5CC[C@@H](C4)N5)nc(OCC4(CN5CCCC5)CC4)nc3c2F)c2c(F)c(F)ccc2c1` [Example 101, 4-(4-((1R,5S)-3,8-diazabicyclo[3.2.1]octan-3-yl)-8-fluoro-2-((1-(pyrrolidin-1-ylmethyl)cyclopropyl)methoxy)quinazolin-7-yl)-5,6-difluoronaphthalen-2-ol], the IC50 was 0.0094 µM.

Take `C#Cc1c(F)ccc2cc(O)cc(-c3ccc4c(N5C[C@H]6CC[C@@H](C5)N6)nc(OCC5(CN6CCCC6)CC5)nc4c3F)c12` [Example 99, 4-(4-((1R,5S)-3,8-diazabicyclo[3.2.1]octan-3-yl)-8-fluoro-2-((1-(pyrrolidin-1-ylmethyl)cyclopropyl)methoxy)quinazolin-7-yl)-5-ethynyl-6-fluoronaphthalen-2-ol]: the IC50 was determined as 0.0088 µM.

Regarding `CCc1cccc2cc(O)cc(-c3ccc4c(N5C[C@H]6CC[C@@H](C5)N6)c(C#N)c(OC[C@@]56CCCN5C[C@H](F)C6)nc4c3)c12` [Example 174, 4-((1R,5S)-3,8-diazabicyclo[3.2.1]octan-3-yl)-7-(8-ethyl-3-hydroxynaphthalen-1-yl)-2-(((2R,7aS)-2-fluorotetrahydro-1H-pyrrolizin-7a(5H)-yl)methoxy)quinoline-3-carbonitrile], the IC50 turned out to be 1.46 µM.

Regarding `CCC1C(=O)Cc2cc(O)cc(-c3ncc4c(N5C[C@H]6CC[C@@H](C5)N6)nc(OC[C@@]56CCCN5C[C@H](F)C6)nc4c3F)c21` (stereo partly drawn) [Example 263, 7-(4-((1R,5S)-3,8-diazabicyclo[3.2.1]octan-3-yl)-8-fluoro-2-(((2R,7aS)-2-fluorotetrahydro-1H-pyrrolizin-7a(5H)-yl)methoxy)pyrido[4,3-d]pyrimidin-7-yl)-1-ethyl-5-hydroxy-1,3-dihydro-2H-inden-2-one], the IC50 is greater than 10 µM.
